According to US20140364552A1, “AQUEOUS RESIN COMPOSITION COMPRISING FILM-FORMING AID, AND STEEL SHEET SURFACE TREATMENT AGENT CONTAINING THE SAME” (DIC Corporation, priority 2011, published 2014):

Columns and labels:
[1] = Evaluating film-forming property (cracks in cast coating film); format: physicochemical
Experimental: After drying for 24 hours, the film-forming property was evaluated by visual observation based on criteria below. When no crack occurred, the film-forming property was evaluated as “A”, when fine cracks slightly occurred, the film-forming property was evaluated as “B”, and when clear cracks occurred over the entire surface of the coating film, the film-forming property was evaluated as “C”.

[2] = Evaluating alkali resistance of coating film on galvanized steel sheet; format: physicochemical
Experimental: Each of the aqueous resin compositions immediately after preparation was applied on a galvanized steel sheet by using a film applicator so that an amount of application was 0.1 g/100 cm^2 and then dried at 80° C. for 30 seconds to form a test piece. Next, 0.5 mL of a 5% aqueous sodium hydroxyl solution was dropped on the test piece which was then allowed to stand for 30 minutes. After being allowed to stand, the appearance of a coating film in a portion where the liquid adhered was evaluated based on criteria below. When no change occurred in the appearance, alkali resistance was evaluated as “A”; when the coating film was discolored black or dissolved in an area of less than 10%, alkali resistance was evaluated as “B”; when the coating film was discolored black or dissolved in an area of 10% or more and less than 30%, alkali resistance was evaluated as “C”; and when the coating film was discolored black or dissolved in an area of 30% or more, alkali resistance was evaluated as “D”.

[3] = Corrosion resistance, salt spray test JIS Z2371; format: physicochemical
Experimental: Each of the aqueous resin compositions immediately after preparation was applied on a galvanized steel sheet by using a film applicator so that an amount of application was 0.1 g/100 cm^2 and then dried at 80° C. for 30 seconds to form a test piece. According to a salt spray test method described in JIS Z2371, a 5 mass % aqueous sodium chloride solution was sprayed on the test piece at an ambient temperature of 35° C., and a rate of occurrence of white rust after 240 hours was measured and evaluated based on criteria below. In addition, a tape seal was attached to a portion where the aqueous resin composition was not applied (the end surfaces and back surface). When no white rust occurred, corrosion resistance was evaluated as “A”; when white rust occurred in an area of less than 5% of the whole coating area, corrosion resistance was evaluated as “B”; when white rust occurred in an area of 5% or more and less than 20% of the whole coating area, corrosion resistance was evaluated as “C”; and when white rust occurred in an area of 20% or more of the whole coating area, corrosion resistance was evaluated as “D”.

[4] = cited from earlier work

CN1CCCC1=O [N-methyl-2-pyrrolidone]
film-forming property (in words) [1]: excellent
alkali resistance of coating film (in words) [2]: excellent
corrosion resistance of coating film (in words) [3]: excellent
toxicity (in words) [4]: problem of toxicity
